Patent publication US20230000924A1, “COMPOSITIONS AND METHODS FOR GENERATION OF SINOATRIAL NODE-LIKE CELLS AND THEIR USE IN DRUG DISCOVERY” (Cornell University, priority 2019, published 2023)
“Also recorded” adds a separate entry of the source.

Experiments:
hPSC-SAN cells = test: Chemical screen and validation for rescue of DOXO toxicity in hPSC-SAN cells; type: cell-based, human
Method: The fold change was calculated by dividing the percentage of cleaved caspase-3^+ cells in GFP^+ or mCherry^+ cells in the DOXO-treated condition by the percentage of cleaved caspase-3^+ cells in GFP^+ or mCherry^+ cells in the DMSO-treated condition (n=10); b, Sensitivity of day 30 hiPSC-SAN cells derived from 48 hiPSC lines upon DOXO treatment. […] The fold change was calculated by dividing the percentage of cleaved caspase-3^+ cells in ISL1^+ cells in the DOXO-treated condition by the percentage of cleaved caspase-3^+ cells in ISL1^+ cells in the DMSO-treated condition. […] Data were normalized to non-DOXO treated cells (n=4). h, Quantification of cell toxicity on hPSC-SAN cells derived from sensitive iPSC lines after co-treatment with DOXO and either 10 μM physcion (n=3) or DMSO (n=4). *p<0.05 **p<0.01. t-test. Data are mean±s.e.m. Data were normalized to non-DOXO treated cells.
Day 35 cells were treated for 3 days with DOXO and small molecules.
1472 compounds were tested consisting of FDA-approved drugs and natural products. Hit targets were selected based on a reduced percent ratio of GFP^+ cleaved caspase-3^+/GFP^+ cells (FIG. 11a). The compounds that decreased the cell death rate by more than two-fold of the standard deviation below the average of DMSO-treated samples were selected as primary hits. […]

[1] = tested on: A549 human epithelial lung cancer cells; test: Chemotherapeutic effect on A549 cells in culture; type: cell-based; conditions: 72 hrs
Method: FIG. 17. […] We tested the effects of Physcion and Physcion+Doxorubicin on A549 human epithelial lung cancer cells grown in culture. 5×10^4 cells were treated with varying doses of Doxorubicin and Physcion for 72 hrs.

murine SAN = test: Ex vivo murine atrial explants (SAN cell death, contraction rhythmicity)
Method: FIG. 15. […] Quantification of contraction rhythmicity of explants was calculated by the COV as described above.
FIG. 16. […] Quantification of contraction rhythmicity of explants was calculated by the COV as described above.
Thus, we used an ex vivo model to document the direct effect of Doxorubicin and Physcion on the murine SAN. Whole, intact atrial explants were incubated with 1 μM doxorubicin or 1 uM doxorubicin+20 μM Physcion for 3 hrs.

A549 xenograft tumors = test: A549 xenograft mouse model; type: in vivo; conditions: IP once a week for two weeks
Method: FIG. 18. […] We tested the effects of Doxorubicin and Physcion using an A549 xenograft mouse model. Mice with A549 xenograft tumors were treated with vehicle, Doxorubicin, Physcion, or Doxorubicin plus Physcion. Doxorubicin and Physcion treatment was administered by IP injection once a week for two weeks, at a concentration of 4 mg/kg wt for both compounds.

SHOX2:GFP+ cells = test: Epigenetic library screen for SHOX2:GFP+ cells; type: cell-based, human; conditions: condition 8, compound added at day 7, after 14 days of differentiation
Excerpt: To quantify and purify SAN-like cells using this directed differentiation protocol, a dual knock-in SHOX2:GFP; MYH6:mCherry reporter line was created using CRISPR/Cas-based gene-targeting techniques (FIG. 6b). Immunofluorescence and FACS analyses confirmed the success of the protocol for generating putative hPSC-SAN cells, as condition 8 maximizes generation of SHOX2:GFP^+ cells (FIG. 1c, d). The sorted GFP^+ cells were enriched approximately 4000-fold for SHOX2 transcript levels compared to GFP^− cells (FIG. 1e), and most of the GFP^+ cells co-express ISL1 and HCN4, proteins closely associated with the development and function of SAN cells (FIG. 6b). To further enhance production of GFP^+ cells, we considered that SAN development may also be controlled epigenetically and performed an unbiased screen using a library of known epigenetic modulatory compounds. Cells were differentiated using condition 8 with compounds added at day 7 (FIG. 1f and FIG. 6c).
Pacemaker and cardiomyocyte induction. Differentiation was initiated 72 hours after plating when the culture was approximately 80% confluent. Step 1: Cells were differentiated with 1.5 μM CHIR99021 (CHIR, Stem-RD, Ch), 20 ng/mL BMP4 (B) and 20 ng/mL Activin A (AA) in RPMI (Cellgro) supplemented with B27 minus insulin, 2 mM GlutaMAX, 1× NEAA and 1× Pen/Strep for 3 days (RB27-INS). […]

[2] = tested on: hESC-derived ventricular myocytes (hESC-V); test: Ca2+-flux assay (calcium imaging) in hESC-derived ventricular myocytes; type: cell-based, human; conditions: cardiomyocyte (hESC-V) cultures, 1 μM ivabradine, recordings after 5 min vs baseline
Method: (§1) FIG. 2. Functional characterization of hPSC-SAN cells. a, Immunofluorescent co-staining of GFP with pacemaker-associated transcription factors (ISL1, TBX5 and NKX2.5) and ion channels (HCN4, Cav3.1, Cav1.3 and Cx30.2) in cells differentiated to day 30 or day 60. Scale bar=200 μM. b, qRT-PCR analysis using samples from GFP^+ (G+) or mCherry^+ (Ch+) cells at day 25 or day 45. n=3 independent experiments. Fold-change was normalized to undifferentiated hESC. c, Schematic for co-culture of hESC-derived ANs expressing eYFP-channelrhodopsin-2 with either hPSC-SAN or hESC-V; d, Immunofluorescence (left) and electron microscopy images (right) of hESC-AN and hPSC-SAN after 12 weeks of co-culture. Scale bar: 100 μM and 1 μM, respectively; e, Basal release of catecholamine was analyzed using an ELISA kit for AN alone, AN+hES-SAN and AN+hES-V conditions after 8 weeks of co-culture. n=3 independent experiments. f, Representative image of averaged action potentials recorded from an individual hPSC-SAN (left) and distribution (right) of dV/dtmax, APD30 and APD90 recorded used day 30 cells; g, Quantitative analysis of day 30 hPSC-SAN function in response to 1 μM ivabradine. Fold change in calcium transient amplitude (deltaF/F0) of hPSC-SAN or hESC-V cells before and after treatment with ivabradine (n=22 for hESC-SAN and =17 for hESC-V). *p<0.05 **p<0.01. t-test. Data are mean±s.e.m. […]

hESC-SAN cells = test: Ca2+-flux assay (calcium imaging) in hESC-SAN cells; type: cell-based, human; conditions: 1 μM ivabradine, recordings after 5 min vs baseline
Method: as §1

[3] = 1 uM doxorubicin+20 μM Physcion, 3 hrs

Compound: COc1cc(O)c2c(c1)C(=O)c1cc(C)cc(O)c1C2=O [Physcion, physcion]
- effective dose to rescue DOXO-induced cell toxicity (hPSC-SAN cells; hPSC-SAN cells, 0.16 μM DOXO, 3 days): 10 to 20 µM
- toxicity levels in hPSC-SAN cells from sensitive iPSC lines (hPSC-SAN cells; three most sensitive iPSC lines, DOXO with 10 μM Physcion vs without): significant decrease in toxicity levels
- chemotherapeutic effects of Physcion alone [1]: does not exhibit chemotherapeutic effects
- effect on chemotoxic effects of Doxorubicin ([1]; Physcion as high as 50 μM, varying doses of Doxorubicin): did not block; also recorded: did not inhibit
- doxorubicin-induced SAN cell death of explants (murine SAN; [3]): blocks
- doxorubicin-induced arrhythmic contractility of explants (murine SAN; [3]): blocks
- contraction rhythmicity of explants (COV) (murine SAN; 1.5 μM Doxorubicin+20 μM Physcion): regained rhythmic contractions with minimal variance in periods between contractions
- tumor burden / growth (tumor wt. and volume), single agent (A549 xenograft tumors; 4 mg/kg): did not affect tumor growth
- effect on chemotherapeutic effects of Doxorubicin in vivo (A549 xenograft tumors; Physcion plus Doxorubicin, 4 mg/kg each): did not block; also recorded: did not inhibit the chemotherapeutic effects of Doxorubicin

Compound: Nc1cc(F)ccc1NC(=O)c1ccc(CNC(=O)/C=C/c2cccnc2)cc1 [chidamide]
- percentage of GFP+ cells (SHOX2:GFP+ cells): ~50%

Compound: COc1cc2c(cc1OC)CC(=O)N(CCCN(C)C[C@H]1Cc3cc(OC)c(OC)cc31)CC2 [ivabradine, Ivabradine]
- contractions and calcium activity [2]: no significant difference
- contractions and calcium activity (hESC-SAN cells): significant reduction
